Source: paper PMC9399069, “Imaging PARP with [^18F]rucaparib in pancreatic cancer models” (European Journal of Nuclear Medicine and Molecular Imaging, 2022)
Values joined by “and” are separate entries in the source; they are usually repeats but may differ in a detail not shown here. Equal entries are not always repeated.

Experiments:
[1] = test system: AsPC1 cells; test: Protein expression by flow cytometry after PARP inhibitors or DNA-damaging reagents, AsPC1 cells; format: cell-based, human; conditions: 100 μM, 3 h
Protocol: (§1) Relative expression of PARP1, 2 and 3, ALDH2 and IMPDH2 was determined by flow cytometry. Cells (1 × 10^6 cells/well) were seeded in 96-well plates in growth medium, washed with FACS buffer (PBS, 2% FBS, 1 mM EDTA, 0.1% NaN3) and centrifuged at 500×g for 5 min. Immunostaining was performed using the Foxp3/transcription factor staining buffer set (eBioscience^TM, USA). Intracellular staining was conducted in permeabilisation buffer for 30 min at 4 °C in the dark using the following antibodies: AF488-conjugated anti-PARP-1 (1:100; sc-80070), AF594-conjugated anti-PARP-2 (1:100; sc-393310), anti-PARP-3 (1:100; sc-390771) or anti-PARP-tankyrase-1/2 (1:100; sc-365897) from Santa Cruz Biotechnology Inc. (USA), AF488-conjugated anti-IMPDH2 (1:500; ab-200770) from Abcam plc. (UK) and AF488-conjugated anti-ALDH2 (1:100, ABIN6817568) from Antibodies-online GmbH (UK). Fixable viability dye ef780 (1:4000; eBioscience^TM; 65-0865-14) was used for live and dead cells discrimination. Fixation of immunostained cells was performed for 15 min at room temperature. Flow cytometry was conducted on the CytoFLEX benchtop flow cytometer (Beckman Coulter, USA), with appropriate lasers and filters, positive and negative controls. Data were analysed using FlowJo^TM (Tree Star Inc., BD Biosciences, USA).
(§2) AsPC1 (1 × 10^5 cells/well) and PSN1 cells (7.5 × 10^4 cells/well) were exposed to methyl methanesulfonate (MMS) or temozolomide (TMZ) (100 μM, in a total of 270 μL growth medium) for 3 h at 37 °C. Additionally, [^18F]rucaparib (500 kBq, 3.6 GBq/μmol; [^TotalF]rucaparib final concentration: 301 nM) or [^18F]olaparib (400 kBq, 8.5 GBq/μmol; [^TotalF]olaparib final concentration: 300 nM) was added, and the cells were incubated at 37 °C for 30 min. Cell culture medium was removed, and cells were washed with PBS. For cell retention, fresh medium (300 μL) was added to the cells. Cells were then further incubated at 37°C for 3 h. Cell culture medium was removed, and the amount of ^18F in the cell lysates was measured as above. Protein expression of the cells after DNA-damaging treatments (or PARP inhibitors 10 μM) was performed using flow cytometry as above.

[2] = test system: PSN1 cells; test: Protein expression by flow cytometry after PARP inhibitors or DNA-damaging reagents, PSN1 cells; format: cell-based, human; conditions: 100 μM, 3 h
Protocol: as §1, §2

[3] = test system: AsPC1 cells; test: Uptake and retention of radiolabelled PARP inhibitors in AsPC1 cells treated with DNA-damaging reagents; format: cell-based, human; conditions: 100 μM, 3 h, retention at 3 h
Protocol: as §2

[4] = test system: PSN1 cells; test: Uptake and retention of radiolabelled PARP inhibitors in PSN1 cells treated with DNA-damaging reagents; format: cell-based, human; conditions: 100 μM, 3 h, retention at 3 h
Protocol: as §2

[5] = test system: AsPC1 cells; test: In vitro uptake and binding selectivity of [18F]rucaparib in AsPC1 cells; format: cell-based, human; conditions: [TotalF]rucaparib 258 nM, 37 °C, Fig. 1B
Protocol: (§3) AsPC1 (1 × 10^5 cells/well) and PSN1 cells (7.5 × 10^4 cells/well) were seeded separately in 24-well plates (in 300 μL growth medium) and allowed to adhere for at least 20 h. […] To assess [^18F]rucaparib-binding selectivity, unlabelled PARP inhibitors, IMPDH2 or ALDH2 inhibitor, were added (100 μM, in 270 μL growth medium) for 45 min at 37 °C before addition of [^18F]rucaparib (156 kBq, 6.8 GBq/μmol; [^TotalF]rucaparib final concentration: 100 nM), and the cells were incubated at 37 °C for a further 45 min. Cell culture medium was removed, and cells were washed with PBS. Cells were lysed using RIPA buffer for 15 min at room temperature, and the amount of ^18F in the cell lysates was measured using an automated gamma counter (PerkinElmer), normalising for the number of cells.
(§4) Cells were lysed and the amount of ^18F in the cell lysates was measured as above.

[6] = test system: PSN1 cells; test: In vitro uptake and binding selectivity of [18F]rucaparib in PSN1 cells; format: cell-based, human; conditions: 37 °C
Protocol: as §3, §4

[7] = test system: AsPC1 cells; test: Cell retention of [18F]rucaparib and [18F]olaparib in AsPC1 cells; format: cell-based, human
Protocol: (§5) AsPC1 (1 × 10^5 cells/well) and PSN1 cells (7.5 × 10^4 cells/well) were exposed to [^18F]rucaparib (100 kBq, 4.8 GBq/μmol; [^TotalF]rucaparib final concentration: 258 nM) or [^18F]olaparib (400 kBq, 2.8 GBq/μmol: [^TotalF]olaparib final concentration: 242 nM) in 24-well plates at 37 °C for 30 min. Cell culture medium was removed, and cells were washed with PBS, followed by the addition of fresh medium (300 μL). Cells were then further incubated at 37 °C. Cell culture medium was removed, and cells were washed with PBS at different times (0–3 h). Cells were lysed using RIPA buffer for 15 min at room temperature, and the amount of ^18F in the cell lysates was measured as above.

[8] = test system: PSN1 cells; test: Cell retention of [18F]rucaparib and [18F]olaparib in PSN1 cells; format: cell-based, human
Protocol: as §5

[9] = test system: PSN1 xenografts; test: Dynamic PET/CT imaging of [18F]rucaparib in PSN1 tumour-bearing mice; format: in vivo, Balb/c nu/nu mice
Protocol: Female Balb/c nu/nu (OlaHsd-Foxn1^nu) mice, aged 4–6 weeks, were purchased from Envigo (UK). Animals were housed in IVC cages, up to 6 per cage, in an artificial day–night cycle facility. Food and water were provided ad libitum. PSN1 cells were harvested using trypsin, washed twice with PBS and reconstituted in PBS:Matrigel® Matrix High Concentration (1:1). Cell suspensions (PSN1: 2 × 10^6 cells/ 100 μL) were injected subcutaneously in the lower right flank. […] Animal was anesthetised by 4% isoflurane gas (0.5 L/min O2) and maintained at 2.5% at 37 °C throughout the duration of image acquisition. PET images were reconstructed using U-SPECT-Rec3.22 software (MILabs, Utrecht, The Netherlands), applying a pixel-based algorithm, ordered subset expectation maximisation (OSEM) with 6 subsets, 4 iterations and 0.8 mm voxel size for fluorine-18 (energy window settings 477.9–584.1 keV). Reconstructed PET and CT images were viewed and analysed using PMOD v.3.37 (PMOD Technologies, Zurich, Switzerland).

[10] = test system: PSN1 xenografts; test: Ex vivo biodistribution of [18F]rucaparib in PSN1 tumour-bearing mice; set-up: species or system Balb/c nu/nu mice; conditions: for Ex vivo biodistribution, Blood / Ex vivo biodistribution, Bone / Ex vivo biodistribution, Fat / Ex vivo biodistribution, Heart / Ex vivo biodistribution, Kidney / Ex vivo biodistribution, Large intestine / Ex vivo biodistribution, Lung / Ex vivo biodistribution, Muscle / Ex vivo biodistribution, Pancreas / Ex vivo biodistribution, Small intestine / Ex vivo biodistribution, Tumour: i.v.; for Tumour uptake / Tumour-to-blood (T/B) ratio: PSN1 xenografts; for Tumour uptake: mean ± SD
Protocol: Female Balb/c nu/nu (OlaHsd-Foxn1^nu) mice, aged 4–6 weeks, were purchased from Envigo (UK). Animals were housed in IVC cages, up to 6 per cage, in an artificial day–night cycle facility. Food and water were provided ad libitum.
PSN1 cells were harvested using trypsin, washed twice with PBS and reconstituted in PBS:Matrigel® Matrix High Concentration (1:1). Cell suspensions (PSN1: 2 × 10^6 cells/ 100 μL) were injected subcutaneously in the lower right flank.
Animals were administered [^18F]rucaparib (0.87–11.38 MBq in 100 μL of PBS, Am = 1.5–30.9 GBq/μmol) by intravenous injection via the lateral tail vein. To evaluate the selectivity of tumour uptake, an excess of unlabelled rucaparib or olaparib (0.5 mg) was co-administered as a blocking agent in some animals. Dynamic PET images (1 h) were acquired using a MILabs VECTor^4 camera, equipped with an ultra-high resolution rat/mouse collimator (1.8 mm), followed by a cone-beam CT scan (55 kV, 0.19 mA) for anatomical reference and attenuation correction. Animal was anesthetised by 4% isoflurane gas (0.5 L/min O2) and maintained at 2.5% at 37 °C throughout the duration of image acquisition. PET images were reconstructed using U-SPECT-Rec3.22 software (MILabs, Utrecht, The Netherlands), applying a pixel-based algorithm, ordered subset expectation maximisation (OSEM) with 6 subsets, 4 iterations and 0.8 mm voxel size for fluorine-18 (energy window settings 477.9–584.1 keV). Reconstructed PET and CT images were viewed and analysed using PMOD v.3.37 (PMOD Technologies, Zurich, Switzerland).
Either 1 h or 2 h after radiolabelled compound injection, animals were euthanised. Selected organs, tissues and blood were removed, and the percentage of the injected dose per gram of tissue (%ID/g) was determined, using a HIDEX automated gamma counter.

[11] = PSN1 tumour-bearing mice, i.v., n=3
[12] = PSN1 tumour-bearing mice, i.v., n=3, biphasic
[13] = 1 h post-injection, individual animals (n=3)
[14] = 2 h post-injection, individual animals (n=6)

## COS(C)(=O)=O [MMS, methyl methanesulfonate]
[1]; flow cytometry
  Upregulation of PARP proteins: < 10%
[1]; not statistically significant in AsPC1 cells
  γH2AX expression: increasing trend
[2]
  γH2AX expression: increasing trend
[2]; flow cytometry
  Upregulation of PARP proteins: < 10%
[3]
  Cell association and retention of [TotalF]rucaparib and [TotalF]olaparib after exposure to DNA-damaging reagent: increased
[4]
  Cell association and retention of [TotalF]rucaparib and [TotalF]olaparib after exposure to DNA-damaging reagent: increased

## CNCc1ccc(-c2[nH]c3cc([18F])cc4c3c2CCNC4=O)cc1 [[^18F]rucaparib]
[5]
  Cellular uptake (time): < 1 min
[6]; PSN1 cells, [TotalF]rucaparib 258 nM, Fig. 1B
  Cellular uptake (time): < 1 min
[6]; PSN1 versus AsPC1 cells, 64 nM and 258 nM, 30 min
  Cell association of [18F]rucaparib: higher in PSN1 cells than in AsPC1 cells
[7]
  Uptake and retention compared with [TotalF]olaparib: 100 fold
[8]
  Uptake and retention compared with [TotalF]olaparib: 100 fold
[9]; PSN1 tumour-bearing mice, dynamic imaging and biodistribution
  Elimination pathways: hepatobiliary and renal
[9]; PSN1 tumour-bearing mice, i.v.
  Half-life for liver elimination: 31 ± 19 min
[9]; PSN1 tumour-bearing mice, i.v., 8.9 μg or 27.5 nmol/kg
  Weighted blood half-life: 4.3 ± 0.62 min
[9]; [11]
  Blood clearance, fraction of fast phase: 54 ± 10%
  Blood clearance, fraction of slow phase: 46 ± 10%
[9]; [12]
  Blood clearance, fast half-life: 1.7 ± 0.44 min
  Blood clearance, slow half-life: 16 ± 10 min
[9]; PSN1 xenografts, 50 min post-injection
  Tumour-to-muscle (T/M) ratio from PET/CT images: 2.3 ± 1.1
[9]; PSN1 xenografts, dynamic PET
  Time of tumour uptake (VOI analysis): ≤ 10 min
[9]; dynamic PET, indicates fast renal clearance
  Time of uptake in kidney and bladder: ≤ 5 min
[10]; [13]
  Ex vivo biodistribution, Blood: 3.51 %ID/g and 3.67 %ID/g and 3.59 %ID/g
  Ex vivo biodistribution, Bone: 4.90 %ID/g and 6.79 %ID/g and 5.26 %ID/g
  Ex vivo biodistribution, Fat: 6.53 %ID/g and 4.98 %ID/g and 6.82 %ID/g
  Ex vivo biodistribution, Heart: 13.27 %ID/g and 16.24 %ID/g and 17.47 %ID/g
  Ex vivo biodistribution, Kidney: 17.24 %ID/g and 30.17 %ID/g and 36.00 %ID/g
  Ex vivo biodistribution, Large intestine: 12.50 %ID/g and 16.33 %ID/g and 14.08 %ID/g
  Ex vivo biodistribution, Lung: 17.76 %ID/g and 25.71 %ID/g and 27.51 %ID/g
  Ex vivo biodistribution, Muscle: 2.63 %ID/g and 4.25 %ID/g and 3.13 %ID/g
  Ex vivo biodistribution, Pancreas: 19.47 %ID/g and 23.54 %ID/g and 23.22 %ID/g
  Ex vivo biodistribution, Small intestine: 33.79 %ID/g and 46.24 %ID/g
  Ex vivo biodistribution, Tumour: 5.25 %ID/g and 6.05 %ID/g and 5.16 %ID/g
[10]; [14]
  Ex vivo biodistribution, Blood: 0.92 %ID/g and 0.49 %ID/g and 0.48 %ID/g and 1.57 %ID/g and 0.51 %ID/g and 0.44 %ID/g
  Ex vivo biodistribution, Bone: 3.49 %ID/g and 2.71 %ID/g and 2.38 %ID/g and 3.10 %ID/g and 2.18 %ID/g and 2.26 %ID/g
  Ex vivo biodistribution, Fat: 1.32 %ID/g and 0.74 %ID/g and 0.84 %ID/g and 1.78 %ID/g and 1.03 %ID/g and 0.86 %ID/g
  Ex vivo biodistribution, Heart: 2.44 %ID/g and 2.15 %ID/g and 1.73 %ID/g (2×) and 1.61 %ID/g and 1.27 %ID/g
  Ex vivo biodistribution, Kidney: 7.28 %ID/g and 6.56 %ID/g and 5.54 %ID/g and 7.41 %ID/g and 4.70 %ID/g and 4.13 %ID/g
  Ex vivo biodistribution, Large intestine: 23.81 %ID/g and 19.26 %ID/g and 15.83 %ID/g and 25.44 %ID/g and 36.97 %ID/g and 43.06 %ID/g
  Ex vivo biodistribution, Lung: 8.77 %ID/g and 6.24 %ID/g and 4.58 %ID/g and 9.27 %ID/g and 5.27 %ID/g
  Ex vivo biodistribution, Muscle: 2.51 %ID/g and 1.58 %ID/g and 1.90 %ID/g and 2.77 %ID/g and 1.57 %ID/g (2×)
  Ex vivo biodistribution, Pancreas: 13.99 %ID/g and 9.45 %ID/g and 9.78 %ID/g and 11.07 %ID/g and 9.35 %ID/g and 7.70 %ID/g
  Ex vivo biodistribution, Small intestine: 16.44 %ID/g and 9.50 %ID/g and 19.42 %ID/g and 22.39 %ID/g and 10.51 %ID/g and 13.44 %ID/g
  Ex vivo biodistribution, Tumour: 2.58 %ID/g and 2.10 %ID/g and 1.74 %ID/g and 2.60 %ID/g and 3.45 %ID/g and 2.99 %ID/g
[10]; 1 h after i.v. administration
  Tumour uptake: 5.5 ± 0.5 %ID/g and 5.49 ± 0.49 %ID/g
[10]; 1 h post-administration
  Tumour-to-blood (T/B) ratio: 1.53 ± 0.11
[10]; 2 h post-administration
  Tumour-to-blood (T/B) ratio: 4.33 ± 2.1
  Tumour uptake: 2.2 ± 0.34 %ID/g
